The source made the active and inactive calls. No cut-off for these calls is given here.
Experiments:
[1] = Half life in BALB/c mouse at 10 mg/kg, sc by LC-MS/MS analysis; assay type: ADME, organism-based; settings: in vivo
[2] = Selectivity index, ratio of IC50 for human ASPC1 cells assessed as inhibition of cell viability incubated for 6 hrs followed by compound washout measured after 114 hrs by Cell Titer Glo assay to IC50 for human ASPC1 cells assessed as inhibition of cell viability incubated for 120 hrs of continuous treatment by Cell Titer Glo assay; assay type: functional
ASPC1 [3] = experiment: Antiproliferative activity against human ASPC1 cells assessed as inhibition of cell viability incubated for 6 hrs followed by compound washout measured after 114 hrs by Cell Titer Glo assay; assay type: functional, cell-based
[4] = target: T1, von Hippel-Lindau disease tumor suppressor/GTPase KRas (Homo sapiens, UniProt P01116+P40337, G12D); experiment: PROTAC activity at VHL/KRAS G12D mutant in human ASPC1 cells assessed as induction of protein degradation incubated for 24 hrs by Western blot analysis; assay type: cell-based; settings: read-out: DC50
[5] = Competitive binding affinity to His-tagged VHL/Elongin C/Elongin B (unknown origin) by FP assay; parameters: species or system Homo sapiens
[6] = tested on: von Hippel-Lindau disease tumor suppressor/GTPase KRas (Homo sapiens), P01116+P40337 [G12D]; experiment: PROTAC activity at VHL/KRAS G12D mutant in human ASPC1 cells assessed as induction protein degradation at 1 uM measured for 2 to 24 hrs by Western blot analysis; assay type: cell-based; settings: time 2-24 hrs
[7] = tested on: von Hippel-Lindau disease tumor suppressor/GTPase KRas (Homo sapiens), P01116+P40337 [G12D]; experiment: PROTAC activity at VHL/KRAS G12D mutant in human ASPC1 cells assessed as induction protein degradation at 1 uM measured for 6 hrs by Western blot analysis relative to control; assay type: cell-based
[8] = tested on: von Hippel-Lindau disease tumor suppressor/GTPase KRas (Homo sapiens), P01116+P40337 [G12D]; experiment: PROTAC activity at VHL/KRAS G12D mutant in human ASPC1 cells assessed as induction of protein degradation at 1 uM incubated for 6 hrs by Western blot analysis; assay type: cell-based
[9] = tested on: von Hippel-Lindau disease tumor suppressor/GTPase KRas (Homo sapiens), P01116+P40337 [G12D]; experiment: PROTAC activity at VHL/KRAS G12D mutant in human ASPC1 cells assessed as induction of protein degradation at 1 uM incubated for 24 hrs by Western blot analysis relative to control; assay type: cell-based
[10] = target: von Hippel-Lindau disease tumor suppressor/GTPase KRas (Homo sapiens) (UniProt P01116+P40337); experiment: PROTAC activity at VHL/KRAS in human NCI-H1975 cells assessed as induction of protein degradation at 0.1 uM incubated for 24 hrs by Western blot analysis; assay type: cell-based
[11] = tested on: von Hippel-Lindau disease tumor suppressor/GTPase KRas (Homo sapiens), P01116+P40337 [G12V]; experiment: PROTAC activity at VHL/KRAS G12V mutant in human SK-CO-1 cells assessed as induction of protein degradation at 0.1 uM incubated for 24 hrs by Western blot analysis; assay type: cell-based
[12] = tested on: von Hippel-Lindau disease tumor suppressor/GTPase KRas (Homo sapiens), P01116+P40337 [G12C]; experiment: PROTAC activity at VHL/KRAS G12C mutant in human NCI-H358 cells assessed as induction of protein degradation at 1 uM incubated for 24 hrs by Western blot analysis relative to control; assay type: cell-based
[13] = target: T1, von Hippel-Lindau disease tumor suppressor/GTPase KRas; experiment: PROTAC activity at VHL/KRAS G12D mutant in human SNU1 cells assessed as induction of protein degradation incubated for 24 hrs by Western blot analysis; assay type: cell-based
[14] = target: T1, von Hippel-Lindau disease tumor suppressor/GTPase KRas; experiment: PROTAC activity at VHL/KRAS G12D mutant in human HPAF-II cells assessed as induction of protein degradation incubated for 24 hrs by Western blot analysis; assay type: cell-based
[15] = target: T1, von Hippel-Lindau disease tumor suppressor/GTPase KRas; experiment: PROTAC activity at VHL/KRAS G12D mutant in human PANC-1 cells assessed as induction of protein degradation incubated for 24 hrs by Western blot analysis; assay type: cell-based
ASPC1 [16] = experiment: Antiproliferative activity against human ASPC1 cells harboring KRAS G12D mutant assessed as inhibition of cell viability incubated for 5 days by Cell Titer Glo assay; assay type: functional, cell-based; settings: ASPC1, 120 h
HPAF-II = experiment: Antiproliferative activity against human HPAF-II cells harboring KRAS G12D mutant assessed as inhibition of cell viability incubated for 5 days by Cell Titer Glo assay; assay type: functional, cell-based; settings: 120 h
AGS = experiment: Antiproliferative activity against human AGS cells harboring KRAS G12D mutant assessed as inhibition of cell viability incubated for 5 days by Cell Titer Glo assay; assay type: functional, cell-based; settings: 120 h
Panc 04.03 = experiment: Antiproliferative activity against human Panc 04.03 cells harboring KRAS G12D mutant assessed as inhibition of cell viability incubated for 5 days by Cell Titer Glo assay; assay type: functional, cell-based; settings: Panc 04.03, 120 h
NCI-H358 = experiment: Antiproliferative activity against human NCI-H358 cells harboring KRAS G12C mutant assessed as inhibition of cell viability incubated for 5 days by Cell Titer Glo assay; assay type: functional, cell-based; settings: NCI-H358, 120 h
NCI-H1975 = experiment: Antiproliferative activity against human NCI-H1975 cells harboring wild-type KRAS assessed as inhibition of cell viability incubated for 5 days by Cell Titer Glo assay; assay type: functional, cell-based; settings: NCI-H1975, 120 h
[17] = tested on: von Hippel-Lindau disease tumor suppressor/GTPase KRas (Homo sapiens), P01116+P40337 [G12D]; experiment: PROTAC activity at VHL/KRAS G12D mutant in human SNU1 cells assessed as decrease in pERK level at 1 uM incubated upto 24 hrs by Western blot analysis; assay type: cell-based
[18] = target: T1, von Hippel-Lindau disease tumor suppressor/GTPase KRas; experiment: PROTAC activity at VHL/KRAS G12D mutant in human ASPC1 cells assessed as inhibition of pERK level incubated for 24 hrs by Western blot analysis; assay type: cell-based
[19] = target: T1, von Hippel-Lindau disease tumor suppressor/GTPase KRas; experiment: PROTAC activity at VHL/KRAS G12D mutant in human SNU1 cells assessed as inhibition of pERK level incubated for 24 hrs by Western blot analysis; assay type: cell-based
[20] = AUClast in BALB/c mouse at 10 mg/kg, sc by LC-MS/MS analysis; assay type: ADME, organism-based; settings: in vivo
[21] = MRT (infinity) in BALB/c mouse at 10 mg/kg, sc by LC-MS/MS analysis; assay type: ADME, organism-based; settings: in vivo
[22] = tested on: von Hippel-Lindau disease tumor suppressor/GTPase KRas (Homo sapiens), P01116+P40337 [G12D]; experiment: In vivo PROTAC activity at VHL/KRAS G12D mutant in human ASPC1 cells xenografted in BALB/c nude mouse assessed as decrease in pERK level at 50 mg/kg, sc measured for 24 hrs by Western blot analysis; assay type: functional, organism-based
ASPC1 [23] = experiment: Antitumor activity in human ASPC1 cells xenografted in BALB/c nude mouse assessed as tumor growth inhibition at 50 mg/kg, sc administered once daily for 22 days relative to control; assay type: functional; settings: ASPC1, 528 h, time 22 day, read-out: TGI
ASPC1 [24] = experiment: Antitumor activity in human ASPC1 cells xenografted in BALB/c nude mouse assessed as tumor growth inhibition at 50 mg/kg, sc administered once per three days for 22 days relative to control; assay type: functional; settings: ASPC1, 528 h, time 22 day, read-out: TGI
[25] = Toxicity in BALB/c nude mouse xenografted with human ASPC1 cells assessed as drug tolerance at 50 mg/kg, sc for 22 days; assay type: organism-based; settings: in vivo, 528 h, time 22 day
[26] = Toxicity in BALB/c nude mouse xenografted with human ASPC1 cells assessed as body weight loss at 50 mg/kg, sc for 22 days; assay type: organism-based; settings: in vivo, 528 h, time 22 day
ASPC1 [27] = experiment: Antitumor activity in human ASPC1 cells xenografted in BALB/c nude mouse assessed as tumor growth inhibition at 30 mg/kg, ip bid for 22 days relative to control; assay type: functional; settings: ASPC1, 528 h, time 22 day, read-out: TGI

von Hippel-Lindau disease tumor suppressor/GTPase KRas (Homo sapiens), P01116+P40337 [G12D], sequence (P01116 whole entry G12D): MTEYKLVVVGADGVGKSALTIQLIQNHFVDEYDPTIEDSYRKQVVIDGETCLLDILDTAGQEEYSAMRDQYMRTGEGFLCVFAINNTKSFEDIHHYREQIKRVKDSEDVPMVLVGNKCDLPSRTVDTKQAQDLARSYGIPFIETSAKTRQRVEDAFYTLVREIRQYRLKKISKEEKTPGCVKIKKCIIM
von Hippel-Lindau disease tumor suppressor/GTPase KRas (Homo sapiens), P01116+P40337 [G12D], sequence (P40337 whole entry partner): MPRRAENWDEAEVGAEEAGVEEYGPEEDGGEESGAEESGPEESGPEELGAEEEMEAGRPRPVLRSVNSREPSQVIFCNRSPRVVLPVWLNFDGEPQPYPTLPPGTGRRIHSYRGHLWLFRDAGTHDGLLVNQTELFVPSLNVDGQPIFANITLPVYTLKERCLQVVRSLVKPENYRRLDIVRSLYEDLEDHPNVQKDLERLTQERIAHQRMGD
T1 sequence (P01116 whole entry G12D, stated change not applied): as the sequence (P01116 whole entry G12D) above
T1 sequence (P40337 whole entry, stated change not applied): as the sequence (P40337 whole entry partner) above
von Hippel-Lindau disease tumor suppressor/GTPase KRas (Homo sapiens), sequence (P01116 whole entry, looked up): as the sequence (P01116 whole entry G12D) above, with D12G counted along it
von Hippel-Lindau disease tumor suppressor/GTPase KRas (Homo sapiens), sequence (P40337 whole entry, looked up): as the sequence (P40337 whole entry partner) above

CCc1c(F)ccc2cc(O)cc(-c3ncc4c(N5C[C@H]6CC[C@@H](C5)N6)nc(OC[C@@H]5CCCN5CCCCOCC(=O)N[C@H](C(=O)N5C[C@H](O)C[C@H]5C(=O)N[C@@H](C)c5ccc(-c6scnc6C)cc5)C(C)(C)C)nc4c3F)c12
half-life [1]: 8.7 h
Ratio IC50 [2]: 3.78
IC50 (ASPC1 [3]): 231 nM
DC50 [4]: 38.1 nM
IC50 [5]: 299 nM
Activity [6]: Active
Activity [7]: 95%
Activity [8]: Active
Activity [9]: 95.1%
Activity [10]: inactive
Activity [11]: inactive
Activity [12]: 37.4%
DC50 [13]: 19.8 nM
DC50 [14]: 53 nM
DC50 [15]: 87.8 nM
IC50 (ASPC1 [16]): 60 nM
IC50 (HPAF-II): 45.2 nM
IC50 (AGS): 31.4 nM
IC50 (Panc 04.03): 51.5 nM
IC50 (NCI-H358): > 9000 nM
IC50 (NCI-H1975): > 10000 nM
Activity [17]: Active
IC50 [18]: 52.9 nM
IC50 [19]: 17.7 nM
AUC(0-t) [20]: 4470 ng·h/mL
MRT inf [21]: 9.33 h
Activity [22]: Active
inhibition in vivo at 50 mg/kg (ASPC1 [23]): 68.6%
inhibition in vivo at 50 mg/kg (ASPC1 [24]): 50.9%
Activity [25]: Non-Toxic
Activity [26]: Non-Toxic
inhibition in vivo at 30 mg/kg (ASPC1 [27]): 89.1%
